Source: patent US20120302609A1, “Pyrazolines for the Modulation of PKM2” (Dynamix Pharmaceuticals LTD., priority 2011, published 2012)

Tests used:
[1] = test system: H1299 (lung); test: Cell proliferation assay (CellTiter-Glo Luminescent); assay type: cell-based, human; settings: 96 hr
Description: 1. Cells were grown according to the ATCC conditions. 2. Cell feeding (passaging) was timed such that the cells were in exponential growth phase at the time of the assay.
3. On day 1, H1299 cells were counted. Cell numbers were adjusted to the desired cell concentration in Media 1: RPMI 1640 Invitrogen 11879020 (that contained no glucose or pyruvate) with 10% FBS, and 1 mM D-Glucose (4 μl of 2.5 M D-glucose G8769 was added in preparing 10 ml RPMI media with 1 mM glucose). A 200 μl of H1299 cell suspension was added to appropriate wells in the 96-well plates, and incubated at 37° C. in the CO2 cell incubator under normal growing conditions for overnight. 4. On day 2, a 100 mM stock concentration of test compounds in 100% DMSO was prepared and serially diluted with 100% DMSO to 33.33 mM, 11.11 mM, and 3.7 mM. A 1:1000 dilution was made to each concentration in media 1 (yielding 0.1% final DMSO concentration). The media was aspirated completely from the cell plate. Each 100 μl of the following solutions (100 μM, 33.33 μM, 11.11 μM, and 3.7 μM) was added to the cells. DMSO in a final concentration of 0.1%, and media without DMSO, were added to the cells and used as a negative control. Empty wells around the experimental wells were filled with PBS. The plate was sealed with parafilm to reduce evaporation. 5. The plate was incubated under normal conditions (5% CO2, and 95% air), for 96 hours at 37° C. 6. On day 6 (after 96 hr incubation), the plate was equilibrated to room temperature for approximately 30 minutes. A 100 μl of CellTiter-Glo Reagent was added in each well of the plate. Contents were mixed for 2 minutes on an orbital shaker to induce cell lysis. The plate was incubated at room temperature for 10 minutes to stabilize luminescent signal. Luminescence was recorded with Flexstation 3.
Unless noted otherwise, proliferation of control or compound treated H1299 cells was measured using CellTiter-Glo Luminescent assay following 96 hr incubation of the cells with and without test compounds. The AC50 values, shown in Table 3, were coded according to follows: A: <3 μM; B: 3-10 μM; C: 10-20 μM; or D: >20 μM.

[2] = target: T1, PKM2, human recombinant (Homo sapiens, UniProt P14618); test: PKM2 enzymatic activity assay (Kinase-Glo Plus luminescence); assay type: biochemical; settings: for AC50: 0.1 nM PKM2, 0.1 mM ADP, 0.5 mM PEP, 1 hour, room temperature, read-out: AC50 group; for Emax: 1 h, read-out: Max activity Group; for Emax / Max activity Group: maximum percent activity, luminescence without compound = 0% activity;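 on Max activity Group: percent increase over no-compound signal after subtracting the no-PKM2 background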
T1 construct: purchased BPS 50295
T1 sequence (P14618 whole entry): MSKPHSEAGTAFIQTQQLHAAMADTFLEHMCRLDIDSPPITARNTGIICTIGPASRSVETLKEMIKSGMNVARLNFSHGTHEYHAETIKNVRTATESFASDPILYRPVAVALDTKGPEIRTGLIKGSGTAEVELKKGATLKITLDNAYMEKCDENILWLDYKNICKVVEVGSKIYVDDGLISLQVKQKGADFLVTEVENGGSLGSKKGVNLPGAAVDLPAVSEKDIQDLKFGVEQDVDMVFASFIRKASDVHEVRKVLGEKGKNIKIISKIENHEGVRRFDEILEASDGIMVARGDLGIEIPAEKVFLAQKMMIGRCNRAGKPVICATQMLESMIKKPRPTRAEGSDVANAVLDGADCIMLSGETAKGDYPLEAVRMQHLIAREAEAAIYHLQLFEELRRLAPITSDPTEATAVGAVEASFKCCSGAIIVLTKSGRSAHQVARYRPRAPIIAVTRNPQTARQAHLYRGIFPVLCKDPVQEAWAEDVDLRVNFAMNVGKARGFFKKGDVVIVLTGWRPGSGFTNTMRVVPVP
Description: PKM2 performs the following enzymatic reaction, where the PKM2 substrates, PEP (phosphoenolpyruvate) and ADP, are converted to pyruvate and ATP as follows:
All of the enzymatic reactions were conducted in duplicates at room temperature for 1 hour in a 50 μL mixture containing: • PKM2 assay buffer (50 mM Imidazole, pH 7.2; 7 mM MgCl2; 50 mM KCl; 0.01% Tween; • and 0.05% BSA), 0.1 mM ADP, 0.5 mM PEP, 0.1 nM PKM2 enzyme (PKM2, human recombinant (BPS catalog number 50295)) and the indicated test compound. Fructose 1,6 biphosphat e, (FBP (Sigma)) was used as a positive control for activation at concentration of 0.5 mM. After enzymatic reactions, 50 μL of Kinase-Glo® Plus reagent (Promega kit) was added to each well and luminescence was measured using a BioTek Synergy™ 2 microplate reader.
PKM2 activity assays were performed in duplicates at each concentration. The luminescence data were analyzed using the computer software, GraphPad PRISM®. In the absence of the compound, the luminescence was defined as 0% activity. The percent activity in the presence of each compound was calculated according to the following equation:
% Activity=[(L−Lb)/(Lt−Lb)−1]×100%
where L=the luminescence in the presence of the test compound, Lb=the luminescence in the absence of PKM2, and Lt=the luminescence intensity in the absence of the test compound. The % activity values versus a series of compound concentrations were plotted using non-linear regression analysis of Sigmoidal dose-response curve generated with the equation Y=B+(T−B)/1+10^((LogEC50-X)×Hill Slope), where Y=percent activity, B=minimum percent activity, T=maximum percent activity, X=logarithm of compound and Hill Slope=slope factor or Hill coefficient. The AC50 values, shown in Table 2 were determined for the indicated test compounds as the concentration causing a half-maximal percent activity.

[3] = test system: 786-O (kidney); test: Cell proliferation assay (CellTiter-Glo Luminescent); assay type: cell-based; settings: Homo sapiens, 786-0, 1 mM glucose, 96 hr
[4] = Homo sapiens, NCI-H1299, 1 mM glucose

Row | AC50 [2] | Emax [2] | SMILES | AC50 [1, 4] | other results
1 | ≤ 1 µM | 130 to 200% | COc1ccc(C2CC(c3ccc(NS(=O)(=O)c4cccc(OC)c4)cc3)=NN2C(C)=O)cc1 (racemic) [Compound 18A, N-(4-(1-Acetyl-5-(4-methoxyphenyl)-4,5-dihydro-1H-pyrazol-3-yl)phenyl)-3-methoxy benzenesulfonamide] | > 20 µM | 
2 | ≤ 1 µM |  | COc1ccc(C2CC(c3ccc(NS(=O)(=O)c4ccc(OC)cc4)cc3)=NN2C(C)=O)cc1 (single isomer, unassigned) [Compound 39A] | > 20 µM | Max activity Group [2]: C (C: ≦130%)
3 |  |  | COc1ccc(C2CC(c3ccc(NS(=O)(=O)c4cccc(C(F)(F)F)c4)cc3)=NN2C(C)=O)cc1 (centres unmarked) [Compound 34A, N-(4-(1-Acetyl-5-(4-methoxyphenyl)-4,5-dihydro-1H-pyrazol-3-yl)phenyl)-3-(trifluoromethyl)benzenesulfonamide] | > 20 µM | AC50 [3]: 3 to 10 µM
4 | ≤ 1 µM |  | COc1ccc(C2CC(c3ccc(NS(=O)(=O)c4ccc(OC)cc4)cc3)=NN2C(C)=O)cc1 (single isomer, unassigned) [Compound 40A] |  | AC50 ([1]; 1 mM glucose): > 20 µM; AC50 ([1]; Complete media): > 20 µM; Max activity Group [2]: A (A: ≧200%)
5 |  |  | COc1ccc(C2CC(c3ccc(NS(=O)(=O)c4ccc(Cl)cc4)cc3)=NN2C(C)=O)cc1 (single isomer, unassigned) [Compound 37A] | > 20 µM | 
6 | ≤ 1 µM | 130 to 200% | COc1ccc(C2CC(c3ccc(NS(=O)(=O)c4cccc(F)c4)cc3)=NN2C(C)=O)cc1 (centres unmarked) [Compound 33A, N-(4-(1-Acetyl-5-(4-methoxyphenyl)-4,5-dihydro-1H-pyrazol-3-yl)phenyl)-3-fluoro benzenesulfonamide] | > 20 µM | 
7 |  |  | COc1ccc(C2CC(c3ccc(NS(=O)(=O)c4cccc(OC)c4)cc3)=NN2C(C)=O)cc1 (single isomer, unassigned) [Compound 29A] | > 20 µM | 
8 |  |  | CC(=O)N1N=C(c2ccc(NS(=O)(=O)c3ccc(F)cc3)cc2)C[C@@H]1c1ccc(C)cc1 [Compound 41A, (R)—N-(4-(1-Acetyl-5-(p-tolyl)-4,5-dihydro-1H-pyrazol-3-yl)phenyl)-4-fluorobenzene sulfonamide] | 10 to 20 µM | AC50 [3]: 3 to 10 µM
9 | ≤ 1 µM | ≤ 130% | COc1ccc(C2CC(c3ccc(NS(=O)(=O)c4ccc(Cl)cc4)cc3)=NN2C(C)=O)cc1 (racemic) [Compound 26A, N-(4-(1-Acetyl-5-(4-methoxyphenyl)-4,5-dihydro-1H-pyrazol-3-yl)phenyl)-4-chloro benzenesulfonamide] | > 20 µM | AC50 [3]: 3 to 10 µM
10 |  |  | COc1ccc(C2CC(c3ccc(NS(=O)(=O)c4ccc(Cl)cc4)cc3)=NN2C(C)=O)cc1 (single isomer, unassigned) [Compound 38A] |  | AC50 ([1]; 1 mM glucose): > 20 µM
11 | 1 to 10 µM | ≤ 130% | CC(=O)N1N=C(c2ccc(NS(=O)(=O)c3ccc(F)cc3)cc2)CC1c1ccc(F)c(F)c1 (centres unmarked) [Compound 27A, N-(4-(1-Acetyl-5-(3,4-difluorophenyl)-4,5-dihydro-1H-pyrazol-3-yl)phenyl)-4-fluoro benzenesulfonamide] |  | 
12 |  |  | COc1ccccc1C1CC(c2ccc(NS(=O)(=O)c3ccc(F)cc3)cc2)=NN1C(C)=O (centres unmarked) [Compound 47A, N-(4-(1-Acetyl-5-(2-methoxyphenyl)-4,5-dihydro-1H-pyrazol-3-yl)phenyl)-4-fluoro benzenesulfonamide] | > 20 µM | AC50 [3]: 3 to 10 µM
13 | 1 to 10 µM | 130 to 200% | COc1ccc(C2CC(c3ccc(NS(=O)(=O)c4ccccc4)cc3)=NN2C(C)=O)cc1 (centres unmarked) [Compound 16A] |  | 
14 | ≤ 1 µM | ≤ 130% | CC(=O)N1N=C(c2ccc(NS(C)(=O)=O)cc2)CC1c1ccc2c(c1)OCO2 (centres unmarked) [Compound 52A] |  | 
15 |  |  | COc1ccc(C2CC(c3ccc(NS(C)(=O)=O)cc3)=NN2C(C)=O)cc1OC (centres unmarked) [Compound 54A] |  | Max activity ([2]; 30 μM): 6% (30 μM)
16 | ≤ 1 µM | 130 to 200% | COc1ccc(C2CC(c3ccc(NS(=O)(=O)c4ccc(OC)c(F)c4)cc3)=NN2C(C)=O)cc1 (centres unmarked) [Compound 44A] |  | 
17 |  |  | COc1ccc(C2CC(c3ccc(NS(=O)(=O)c4ccc(F)cc4)cc3)=NN2C(C)=O)cc1Cl (centres unmarked) [Compound 32A, N-(4-(1-Acetyl-5-(3-chloro-4-methoxyphenyl)-4,5-dihydro-1H-pyrazol-3-yl)phenyl)-4-fluorobenzenesulfonamide] | > 20 µM | AC50 [3]: 3 to 10 µM
18 | 10 to 100 µM | 130 to 200% | CCS(=O)(=O)Nc1ccc(C2=NN(C(C)=O)C(c3cccs3)C2)cc1 (centres unmarked) [Compound 67A] |  | 
19 | 1 to 10 µM | 130 to 200% | CC(=O)N1N=C(c2ccc(NS(=O)(=O)c3ccc(F)cc3)cc2)CC1c1ccc2c(c1)OCCO2 (centres unmarked) [Compound 8A, N-(4-(1-Acetyl-5-(2,3-dihydrobenzo[b][1,4]dioxin-6-yl)-4,5-dihydro-1H-pyrazol-3-yl)phenyl)-4-fluorobenzenesulfonamide] |  | 
20 | ≤ 1 µM | ≤ 130% | CC(=O)N1N=C(c2ccc(NS(=O)(=O)c3ccc(F)cc3)cc2)CC1c1ccc(F)cc1 (single isomer, unassigned) [Compound 35A] |  | 
21 | ≤ 1 µM | 130 to 200% | CC(=O)N1N=C(c2ccc(NS(=O)(=O)c3ccc(F)cc3)cc2)CC1c1ccc2c(c1)CCO2 (centres unmarked) [Compound 22A, N-(4-(1-Acetyl-5-(2,3-dihydrobenzofuran-5-yl)-4,5-dihydro-1H-pyrazol-3-yl)phenyl)-4-fluorobenzenesulfonamide] |  | 
22 |  |  | COc1cccc([C@H]2CC(c3ccc(NS(=O)(=O)c4ccc(F)cc4)cc3)=NN2C(C)=O)c1 [Compound 42A, (R)—N-(4-(1-Acetyl-5-(3-methoxyphenyl)-4,5-dihydro-1H-pyrazol-3-yl)phenyl)-4-fluoro benzenesulfonamide] |  | AC50 [3]: 10 to 20 µM
23 | 1 to 10 µM | ≥ 200% | COc1ccc(C2CC(c3ccc(NS(=O)(=O)c4c(F)cccc4F)cc3)=NN2C(=O)c2ccco2)cc1 (centres unmarked) [Compound 11A, 2,6-Difluoro-N-(4-(1-(furan-2-carbonyl)-5-(4-methoxyphenyl)-4,5-dihydro-1H-pyrazol-3-yl)phenyl)benzenesulfonamide] |  | 
24 | 10 to 100 µM | ≤ 130% | CC(=O)N1N=C(c2ccc3c(c2)CCN3S(C)(=O)=O)CC1c1ccc2c(c1)OCCO2 (centres unmarked) [Compound 9A, 1-(5-(2,3-dihydrobenzo[b][1,4]dioxin-6-yl)-3-(1-(methylsulfonyl)indolin-5-yl)-4,5-dihydro-1H-pyrazol-1-yl)ethanone] |  | 

Row | SMILES | AC50 [2] | Emax [2] | AC50 [1, 4] | other results
25 | CCS(=O)(=O)Nc1ccc(C2=NN(C(C)=O)C(c3ccc(OC)cc3)C2)cc1 (single isomer, unassigned) [Compound 3A] | ≤ 1 µM | 130 to 200% |  | 
26 | CCS(=O)(=O)Nc1ccc(C2=NN(C(C)=O)C(c3ccc(OC)cc3)C2)cc1 (single isomer, unassigned) [Compound 2A, N-(4-(1-Acetyl-5-(4-methoxyphenyl)-4,5-dihydro-1H-pyrazol-3-yl)phenyl)ethane sulfonamide] | ≤ 1 µM |  |  | 
